From patent US8822517B2, “Arylosulfonamides for the treatment of CNS diseases” (Adamed SP. Z O.O., priority 2010, dated 2014)

Assays:
[1] = biological target: serotoninergic 5-HT7 receptor (Homo sapiens, UniProt P34969); experiment: Binding assay 5-HT7 (h), [3H]LSD, CHO cells; parameters: expressed in transfected cells; host or cells: CHO cells; details: read-out: 5-HT7
Procedure, shortened: (§1)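 Binding read by scintillation counting. Non-specific component defined by excess unlabelled ligand and removed from total counts. Compounds at 1×10^−6 M.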

[2] = test system: adrenergic α1 receptor; experiment: Binding assay α1 (non-selective), [3H]prazosin, rat cerebral cortex; details: percent inhibition of control specific binding; compounds tested at 1×10^−6 M
Procedure, shortened: as §1

[3] = test system: sigma σ receptor; experiment: Binding assay σ (non-selective), [3H]DTG, rat cerebral cortex; details: percent inhibition of control specific binding; compounds tested at 1×10^−6 M
Procedure, shortened: as §1

[4] = biological target: T1, serotonine transporter (SERT) receptor (Homo sapiens, UniProt P31645); experiment: Binding assay SERT (h), [3H]imipramine, CHO cells; details: read-out: SERT [%]
T1 construct: expressed in transfected cells; host or cells: CHO cells
T1 sequence (P31645 whole entry): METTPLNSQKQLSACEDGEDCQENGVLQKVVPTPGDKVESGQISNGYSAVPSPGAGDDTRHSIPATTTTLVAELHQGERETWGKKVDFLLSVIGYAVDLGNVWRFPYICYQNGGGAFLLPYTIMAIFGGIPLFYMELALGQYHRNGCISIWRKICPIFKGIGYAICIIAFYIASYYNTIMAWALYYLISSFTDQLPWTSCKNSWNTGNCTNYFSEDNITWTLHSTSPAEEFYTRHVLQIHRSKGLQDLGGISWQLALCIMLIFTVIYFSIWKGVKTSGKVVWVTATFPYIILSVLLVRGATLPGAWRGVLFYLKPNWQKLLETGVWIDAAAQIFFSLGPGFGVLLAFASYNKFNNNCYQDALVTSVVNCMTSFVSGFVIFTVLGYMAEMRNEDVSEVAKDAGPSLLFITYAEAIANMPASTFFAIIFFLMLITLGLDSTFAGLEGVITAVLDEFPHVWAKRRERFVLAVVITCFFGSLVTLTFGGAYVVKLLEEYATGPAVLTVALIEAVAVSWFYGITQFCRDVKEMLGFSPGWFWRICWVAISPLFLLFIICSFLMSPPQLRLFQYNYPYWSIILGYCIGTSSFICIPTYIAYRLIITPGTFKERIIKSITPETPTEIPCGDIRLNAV
Procedure, shortened: as §1

[5] = biological target: dopaminergic D2 receptor (Homo sapiens, UniProt P14416); experiment: Binding assay D2S (h), [3H]methyl-spiperone, HEK-293 cells; parameters: expressed in transfected cells; host or cells: HEK-293 cells; details: read-out: D2 [%]
Sequence of dopaminergic D2 receptor (P14416 1-414 isoform P14416-2): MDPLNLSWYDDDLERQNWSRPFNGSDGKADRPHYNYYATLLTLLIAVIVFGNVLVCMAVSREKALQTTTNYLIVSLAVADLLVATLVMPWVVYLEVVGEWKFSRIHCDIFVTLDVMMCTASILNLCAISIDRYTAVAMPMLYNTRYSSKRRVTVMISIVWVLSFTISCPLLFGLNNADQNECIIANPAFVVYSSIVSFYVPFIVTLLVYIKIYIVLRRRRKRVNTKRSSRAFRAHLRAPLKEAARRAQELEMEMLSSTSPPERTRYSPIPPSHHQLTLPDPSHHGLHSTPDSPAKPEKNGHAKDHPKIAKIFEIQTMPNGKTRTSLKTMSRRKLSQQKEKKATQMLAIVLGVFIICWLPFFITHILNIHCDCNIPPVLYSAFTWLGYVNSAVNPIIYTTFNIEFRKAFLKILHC
Procedure, shortened: as §1

[6] = biological target: serotoninergic 5-HT6 receptor (Homo sapiens, UniProt P50406); experiment: Binding assay 5-HT6 (h), [3H]LSD, CHO cells; parameters: expressed in transfected cells; host or cells: CHO cells; details: read-out: 5-HT6
Sequence of serotoninergic 5-HT6 receptor (P50406 whole entry): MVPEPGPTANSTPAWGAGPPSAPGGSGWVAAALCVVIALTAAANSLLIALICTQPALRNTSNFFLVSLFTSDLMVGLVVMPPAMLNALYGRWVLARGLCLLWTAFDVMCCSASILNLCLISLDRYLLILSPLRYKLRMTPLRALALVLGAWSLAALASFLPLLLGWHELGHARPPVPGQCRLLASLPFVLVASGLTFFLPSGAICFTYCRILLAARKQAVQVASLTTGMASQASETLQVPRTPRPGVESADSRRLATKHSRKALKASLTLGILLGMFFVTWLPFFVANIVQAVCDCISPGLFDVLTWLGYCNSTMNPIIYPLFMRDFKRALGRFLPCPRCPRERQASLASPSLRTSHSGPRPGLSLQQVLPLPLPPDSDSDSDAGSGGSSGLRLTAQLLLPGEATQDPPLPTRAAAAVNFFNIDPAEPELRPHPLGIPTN
Procedure, shortened: as §1

[7] = biological target: histaminergic H1 receptor (Homo sapiens, UniProt P35367); experiment: Binding assay H1 (h), [3H]pyrilamine, HEK-293 cells; parameters: expressed in transfected cells; host or cells: HEK-293 cells; details: read-out: H1 [%]
Sequence of histaminergic H1 receptor (P35367 whole entry): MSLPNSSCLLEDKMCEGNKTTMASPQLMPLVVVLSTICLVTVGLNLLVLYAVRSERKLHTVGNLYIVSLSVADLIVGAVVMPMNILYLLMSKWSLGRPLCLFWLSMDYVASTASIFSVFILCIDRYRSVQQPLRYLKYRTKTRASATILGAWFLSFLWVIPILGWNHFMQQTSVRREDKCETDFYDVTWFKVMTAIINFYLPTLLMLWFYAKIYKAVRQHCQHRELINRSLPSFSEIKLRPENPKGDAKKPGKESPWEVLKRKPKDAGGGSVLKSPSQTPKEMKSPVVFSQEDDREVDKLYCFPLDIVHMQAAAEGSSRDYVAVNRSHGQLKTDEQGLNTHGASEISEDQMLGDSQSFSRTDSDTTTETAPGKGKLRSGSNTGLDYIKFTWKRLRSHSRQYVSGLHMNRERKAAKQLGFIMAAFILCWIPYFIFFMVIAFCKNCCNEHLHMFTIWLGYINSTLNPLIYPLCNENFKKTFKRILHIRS
Procedure, shortened: as §1

[8] = biological target: T2, serotoninergic 5-HT1A receptor (Homo sapiens, UniProt P08908); experiment: Binding assay 5-HT1A (h), [3H]8-OH-DPAT, HEK-293 cells; parameters: expressed in transfected cells; host or cells: HEK-293 cells; details: read-out: 5-HT1A
T2 sequence (P08908 1-422): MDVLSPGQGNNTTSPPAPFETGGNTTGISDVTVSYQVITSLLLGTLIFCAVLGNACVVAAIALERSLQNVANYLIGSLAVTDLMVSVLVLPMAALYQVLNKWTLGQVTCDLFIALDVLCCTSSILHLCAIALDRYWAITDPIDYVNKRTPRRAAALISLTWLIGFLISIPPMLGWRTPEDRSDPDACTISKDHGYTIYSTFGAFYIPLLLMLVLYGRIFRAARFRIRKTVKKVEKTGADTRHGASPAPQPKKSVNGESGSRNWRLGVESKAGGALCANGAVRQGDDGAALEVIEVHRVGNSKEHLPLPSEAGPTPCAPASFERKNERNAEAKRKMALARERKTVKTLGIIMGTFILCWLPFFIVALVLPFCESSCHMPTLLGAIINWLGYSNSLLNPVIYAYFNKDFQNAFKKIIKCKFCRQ
Procedure, shortened: as §1

[9] = biological target: dopaminergic D3 receptor (Homo sapiens, UniProt P35462); experiment: Binding assay D3 (h), [3H]methyl-spiperone, CHO cells; parameters: expressed in transfected cells; host or cells: CHO cells; details: read-out: D3 [%]
Sequence of dopaminergic D3 receptor (P35462 whole entry): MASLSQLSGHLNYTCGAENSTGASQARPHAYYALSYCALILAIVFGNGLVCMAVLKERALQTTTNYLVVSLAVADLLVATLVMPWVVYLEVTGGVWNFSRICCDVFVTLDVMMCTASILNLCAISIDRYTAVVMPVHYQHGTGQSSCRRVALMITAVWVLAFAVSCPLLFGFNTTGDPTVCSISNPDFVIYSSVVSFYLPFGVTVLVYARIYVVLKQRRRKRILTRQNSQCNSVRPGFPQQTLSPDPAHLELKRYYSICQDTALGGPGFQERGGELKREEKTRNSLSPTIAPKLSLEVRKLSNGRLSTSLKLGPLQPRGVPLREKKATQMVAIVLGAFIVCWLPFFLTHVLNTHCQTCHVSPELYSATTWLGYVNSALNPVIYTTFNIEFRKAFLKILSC
Procedure, shortened: as §1

[10] = biological target: T3, adrenergic α2C receptor (Homo sapiens, UniProt P18825); experiment: Binding assay α2C (h), [3H]RX 821002, CHO cells; parameters: expressed in transfected cells; host or cells: CHO cells; details: read-out: α2C [%]
T3 sequence (P18825 1-462): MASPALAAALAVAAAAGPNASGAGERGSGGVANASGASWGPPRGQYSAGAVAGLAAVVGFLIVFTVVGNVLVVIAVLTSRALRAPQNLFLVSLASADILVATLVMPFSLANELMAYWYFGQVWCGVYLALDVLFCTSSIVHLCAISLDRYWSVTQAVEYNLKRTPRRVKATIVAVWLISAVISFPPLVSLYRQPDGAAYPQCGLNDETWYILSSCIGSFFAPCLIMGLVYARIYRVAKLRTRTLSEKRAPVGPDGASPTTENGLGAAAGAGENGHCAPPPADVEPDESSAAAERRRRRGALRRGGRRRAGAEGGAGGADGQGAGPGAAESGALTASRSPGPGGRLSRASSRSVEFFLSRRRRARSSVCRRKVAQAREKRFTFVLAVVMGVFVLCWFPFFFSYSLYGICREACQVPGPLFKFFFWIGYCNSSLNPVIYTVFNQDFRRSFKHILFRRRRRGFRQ
Procedure, shortened: as §1

[11] = biological target: T4, muscarinic M3 receptor (Homo sapiens, UniProt P20309); experiment: Binding assay M3 (h), [3H]4-DAMP, CHO cells; details: read-out: M3 [%]
T4 construct: expressed in transfected cells; host or cells: CHO cells
T4 sequence (P20309 whole entry): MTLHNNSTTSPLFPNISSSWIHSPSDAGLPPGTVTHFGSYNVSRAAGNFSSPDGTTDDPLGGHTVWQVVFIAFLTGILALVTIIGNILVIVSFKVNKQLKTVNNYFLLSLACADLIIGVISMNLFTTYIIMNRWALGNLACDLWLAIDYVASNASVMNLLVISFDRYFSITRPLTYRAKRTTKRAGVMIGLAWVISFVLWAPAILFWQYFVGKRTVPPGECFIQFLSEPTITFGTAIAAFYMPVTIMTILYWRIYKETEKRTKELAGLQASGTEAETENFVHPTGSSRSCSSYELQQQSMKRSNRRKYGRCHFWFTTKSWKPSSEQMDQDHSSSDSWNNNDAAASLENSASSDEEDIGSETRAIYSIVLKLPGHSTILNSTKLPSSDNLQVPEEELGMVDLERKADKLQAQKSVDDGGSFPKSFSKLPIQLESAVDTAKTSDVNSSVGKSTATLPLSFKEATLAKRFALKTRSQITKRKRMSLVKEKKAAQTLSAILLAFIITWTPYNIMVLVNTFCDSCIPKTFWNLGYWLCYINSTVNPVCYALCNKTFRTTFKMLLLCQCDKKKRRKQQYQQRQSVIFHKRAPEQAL
Procedure, shortened: as §1

[12] = biological target: serotoninergic 5-HT2A receptor (Homo sapiens, UniProt P28223); experiment: Binding assay 5-HT2A (h), [3H]ketanserin, HEK-293 cells; parameters: expressed in transfected cells; host or cells: HEK-293 cells; details: read-out: 5-HT2A
Sequence of serotoninergic 5-HT2A receptor (P28223 whole entry): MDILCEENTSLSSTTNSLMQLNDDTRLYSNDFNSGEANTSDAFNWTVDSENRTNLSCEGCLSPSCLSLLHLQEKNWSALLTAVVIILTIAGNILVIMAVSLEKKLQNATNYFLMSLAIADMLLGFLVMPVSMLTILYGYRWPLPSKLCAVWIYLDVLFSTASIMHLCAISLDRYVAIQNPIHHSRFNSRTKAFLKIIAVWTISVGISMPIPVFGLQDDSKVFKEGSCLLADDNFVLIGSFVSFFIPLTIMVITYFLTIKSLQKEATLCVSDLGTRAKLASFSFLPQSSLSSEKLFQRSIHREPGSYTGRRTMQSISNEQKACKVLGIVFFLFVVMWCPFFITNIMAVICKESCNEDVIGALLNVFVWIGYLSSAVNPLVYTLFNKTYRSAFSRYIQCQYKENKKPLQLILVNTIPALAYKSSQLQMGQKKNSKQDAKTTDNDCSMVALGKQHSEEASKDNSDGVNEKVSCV
Procedure, shortened: as §1

[13] = biological target: T5, serotoninergic receptor 5-HT2C (Homo sapiens, UniProt P28335); experiment: Binding assay 5-HT2C (h), [3H]mesulergine, HEK-293 cells; details: read-out: 5-HT2C [%]
T5 construct: expressed in transfected cells; host or cells: HEK-293 cells
T5 sequence (P28335 33-458): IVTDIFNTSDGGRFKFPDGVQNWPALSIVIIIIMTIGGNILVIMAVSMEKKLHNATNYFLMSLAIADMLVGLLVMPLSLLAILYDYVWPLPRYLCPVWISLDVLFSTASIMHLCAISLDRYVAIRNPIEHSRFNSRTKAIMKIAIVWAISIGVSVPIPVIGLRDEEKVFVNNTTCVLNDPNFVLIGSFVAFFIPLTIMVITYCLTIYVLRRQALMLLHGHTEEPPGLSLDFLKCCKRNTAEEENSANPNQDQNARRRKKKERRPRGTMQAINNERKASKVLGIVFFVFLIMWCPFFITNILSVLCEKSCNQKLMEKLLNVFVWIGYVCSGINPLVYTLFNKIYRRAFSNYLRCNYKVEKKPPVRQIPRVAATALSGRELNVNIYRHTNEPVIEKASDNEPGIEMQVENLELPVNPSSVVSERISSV
Procedure, shortened: as §1

Sequence of serotoninergic 5-HT7 receptor (P34969 whole entry): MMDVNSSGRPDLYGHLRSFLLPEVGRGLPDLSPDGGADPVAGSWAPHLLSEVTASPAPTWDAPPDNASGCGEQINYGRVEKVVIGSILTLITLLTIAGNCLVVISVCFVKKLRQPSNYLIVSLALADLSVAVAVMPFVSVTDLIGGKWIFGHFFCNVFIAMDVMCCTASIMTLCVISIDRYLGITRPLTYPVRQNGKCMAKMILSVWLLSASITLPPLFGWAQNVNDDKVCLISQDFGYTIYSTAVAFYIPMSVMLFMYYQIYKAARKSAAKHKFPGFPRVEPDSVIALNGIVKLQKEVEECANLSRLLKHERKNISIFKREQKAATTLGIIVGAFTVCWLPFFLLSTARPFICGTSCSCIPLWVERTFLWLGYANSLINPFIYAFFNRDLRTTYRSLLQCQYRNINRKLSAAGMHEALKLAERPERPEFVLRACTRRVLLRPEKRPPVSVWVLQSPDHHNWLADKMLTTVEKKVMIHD

Structure (SMILES)	inhibition at 1 µM [1]	α1 [%] [2]	σ [%] [3]	inhibition at 1 µM [4]	inhibition at 1 µM [5]	inhibition at 1 µM [6]	inhibition at 1 µM [7]	inhibition at 1 µM [8]	inhibition at 1 µM [9]	inhibition at 1 µM [10]	inhibition at 1 µM [11]	inhibition at 1 µM [12]	inhibition at 1 µM [13]
O=S(=O)(NCCCN1CCN(c2nsc3ccccc23)CC1)c1ccc(Br)cc1 [Compound 252, N-[3-[4-(1,2-Benzothiazol-3-yl)piperazin-1-yl]propyl]-4-bromobenzenesulphonamide]	99%	27%	59%	94%	97%	93%	-77%	99%	98%	95%	16%	101%	84%
O=S(=O)(NCCCCN1CCC(c2noc3cc(F)ccc23)CC1)c1ccc2c(c1)OCO2 [Compound 320, N-[4-[4-(6-Fluoro-1,2-benzoxazol-3-yl)piperidin-1-yl]butyl]-1,3-benzodioxole-5-sulphonamide]	99%	98%	80%	13%	100%	82%	84%	69%	99%	101%	24%	101%	46%
O=S(=O)(NCCCCN1CCC(c2noc3cc(F)ccc23)CC1)c1ccc2c(c1)OCCO2 [Compound 321, N-[4-[4-(6-Fluoro-1,2-benzoxazol-3-yl)piperidin-1-yl]butyl]-2,3-dihydro-1,4-benzodioxine-6-sulphonamide]	100%	98%	74%	61%	98%	89%	95%	78%	98%	100%	14%	100%	65%
O=S(=O)(NCCCN1CCN(c2nsc3ccccc23)CC1)c1cccc(Br)c1 [Compound 253, N-[3-[4-(1,2-Benzothiazol-3-yl)piperazin-1-yl]propyl]-3-bromobenzenesulphonamide]	99%	97%	64%	79%	99%	101%	98%	99%	99%	102%	24%	101%	89%
O=S(=O)(NCCCN1CCN(c2nsc3ccccc23)CC1)c1ccc2cn[nH]c2c1 [Compound 268, N-[3-[4-(1,2-Benzothiazol-3-yl)piperazin-1-yl]propyl]-1H-indazole-6-sulphonamide]	99%	90%	30%	86%	98%	93%	95%	98%	98%	99%	14%	102%	78%
O=S(=O)(NCCCCN1CCC(c2noc3cc(F)ccc23)CC1)c1ccc(Cl)s1 [Compound 308, 5-Chloro-N-[4-[4-(6-fluoro-1,2-benzoxazol-3-yl)piperidin-1-yl]butyl]thiophene-2-sulphonamide]	99%	91%	86%	28%	96%	83%	92%	81%	95%	96%	30%	102%	57%
O=S(=O)(NCCCCN1CCN(c2nsc3ccccc23)CC1)c1ccc(F)c(Cl)c1 [Compound 63, N-[4-[4-(1,2-Benzothiazol-3-yl)piperazin-1-yl]butyl]-3-chloro-4-fluorobenzenesulphonamide]	99%	99%	54%	53%	99%	89%	99%	97%	103%	98%	11%	100%	95%
O=S(=O)(NCCCN1CCC(c2noc3cc(F)ccc23)CC1)c1cnc2ccccn12 [Compound 356, N-[3-[4-(6-Fluoro-1,2-benzoxazol-3-yl)piperidin-1-yl]propyl]imidazo[1,2-a]pyridine-3-sulphonamide]	99%	101%	70%	11%	98%	78%	80%	95%	96%	96%	2%	99%	83%
O=S(=O)(NCCCN1CCN(c2nsc3ccccc23)CC1)c1ccc(Cl)s1 [Compound 196, N-[3-[4-(1,2-Benzothiazol-3-yl)piperazin-1-yl]propyl]-5-chloro-thiophene-2-sulphonamide]	100%	93%	66%	75%	98%	92%	93%	99%	97%	95%	18%	102%	89%
Cc1[nH]c2ccc(Cl)cc2c1C1=CCN(CCCCNS(=O)(=O)c2ccc(Cl)cc2)CC1 [Compound 58, 4-Chloro-N-{4-[4-(5-chloro-2-methyl-1H-indol-3-yl)-3,6-dihydropyridin-1(2H)-yl]butyl}benzenesulphonamide]	46%	76%	34%	78%	97%	84%	75%	94%	100%	80%	11%	51%	21%
